Experiment [1] deals with pre-formed S. lugdunensis biofilms. Description: Microtiter plate biofilm detachment assay. The class given is cell-based, Staphylococcus lugdunensis. The protocol: 40 mM sodium metaperiodate (NaIO4, Sigma-Aldrich) in water, 40 μg/mL purified recombinant dispersin B (obtained from Kane Biotech Inc., Winnipeg, Manitoba, Canada) in sodium phosphate buffer (50 mM sodium phosphate (pH 5.8), 100 mM NaCl), 100 μg/mL proteinase K (Roche Applied Science) in 10 mM Tris-HCl pH 7.5, 10 U/mL trypsin (Promega Corp., Madison, Wis.) in 10 mM Tris-HCl pH 7.5, 100 μg/mL chymotrypsin (Sigma-Aldrich) in 10 mM Tris-HCl pH 7.5, and 100 μg/mL thermolysin (Sigma-Aldrich) in 10 mM Tris-HCl pH 7.5 were tested for their ability to detach pre-formed S. lugdunensis biofilms from polystyrene microtiter plate wells. For certain experiments, proteinase K was inactivated by boiling for 40 minutes.
Biofilms grown in TSBgluc1% were formed in wells of microtiter plates and washed twice with deionized water, as described above for the microtiter plate biofilm formation assay. 100 μL of NaIO4, enzyme, or suitable control was carefully added so as not to mechanically detach biofilms on the bottoms of wells. Plates were incubated at 37° C. for 2 hours, and contents of wells were discarded and washed twice with deionized water. Plates were air-dried overnight, stained with 0.1% safranin for 1 minute, and processed as described above to quantify the amount of stained biofilm remaining after treatment, relative to treatment with the control reagent. Four wells were measured for each treatment condition. Assays were repeated two or three times on separate days with similar results.

In experiment [2] the test system is pre-formed biofilms of S. epidermidis RP62A. Description: Microtiter plate biofilm detachment assay. The class given is cell-based, Staphylococcus epidermidis. As to conditions: 2 hours at 37° C.; safranin OD492.
Experiment [3] relates to pre-formed biofilms of S. carnosus TM300+pCN27. The experiment can be described thus: Microtiter plate biofilm detachment assay. Format: cell-based, Staphylococcus carnosus. As to conditions: 2 hours at 37° C.; safranin OD492.
Experiment [4] relates to S. lugdunensis clinical isolates. Description: Microtiter plate biofilm formation assay. Format: cell-based, Staphylococcus lugdunensis. The method, then:
(§1) Bacteria stored at −70° C. were freshly streaked on sheep's blood agar or trypticase soy agar before each replicate experiment. For microtiter plate biofilm formation and detachment assays, immunodetection assays, and confocal microscopy assays (unless stated otherwise), isolated colonies from 16 to 24 hour-old plates were grown in trypticase soy broth (BD BBL, Franklin Lakes, N.J.) supplemented with 1% (w/v) sterile-filtered glucose (TSBgluc1%) with shaking at 130 rpm for 22-24 hours. Unless otherwise noted, all experiments were incubated in ambient air at 37° C.
(§2) Biofilm formation was assayed using a microtiter plate assay as described elsewhere (Christensen et al., J. Clin. Microbiol., 22:996-1006 (1985)), with modifications as described elsewhere (Chaignon et al., Appl. Microbiol. Biotechnol., 75(1):125-132 (2007) and Frank and Patel, Diagn. Microbiol. Infect. Dis., 57:355-359 (2007)). Briefly, cultures were adjusted with TSBgluac1% to match the turbidity of a 1.0 McFarland standard (˜1-2×10^8 cfu/mL) and diluted 1:50 in TSBgluc1% or TSBgluc1% containing various concentrations of sodium chloride (1-5%, w/v) or ethanol (0.5-4%, v/v). For experiments examining the effect of glucose concentration on biofilm formation, bacteria were grown overnight, adjusted to 1.0 McFarland, and diluted in TSB containing the corresponding amount of glucose being tested (0.5-5%, w/v). 200 μL aliquots of each diluted culture were placed into four wells of 96-well microtiter plates (Nuclon Delta, Nalge Nunc International, Rochester, N.Y.), and incubated for 24 hours. Cell growth was measured by reading the OD600 nm on a microplate reader (Multiskan, Thermo Electron, Waltham, Mass.). Culture media was discarded, and wells were washed twice by fully submerging plates in deionized water to remove non-adherent cells and allowed to air-dry overnight. Biofilms remaining in the wells were stained with 0.1% safranin for 1 minute, rinsed under running tap water to remove excess stain, and air-dried overnight. In order to ensure homogeneity among stained material in the wells, stained biofilms were resuspended in 200 μL of 30 percent glacial acetic acid, and the OD492 nm was measured.

The test system of the next experiment is S. aureus SA113. Description: Microtiter plate biofilm formation assay. The class given is cell-based, Staphylococcus aureus. The protocol:
as §1, §2

The subject of another experiment is S. epidermidis RP62A. The experiment can be described thus: Microtiter plate biofilm formation assay. The class given is cell-based, Staphylococcus epidermidis. The protocol:
as §1, §2

The mark [5] stands for this setting: 2 hours at 37° C., safranin OD492, 15 clinical isolates.
The mark [6] stands for this setting: increasing ethanol concentrations (0.5-4% v/v) in TSBgluc1%.
[7] abbreviates: increasing salt concentrations (1-5% sodium chloride).

“Also recorded” adds a separate entry of the source.

Take `[Na+].[O-][I+3]([O-])([O-])[O-]` [sodium metaperiodate]: the “S. lugdunensis biofilms on whose release there was moderate to little effect” value in experiment [1] (40 mM, 2 hours at 37° C., 8/15 isolates) is 53%. The “biofilm detachment compared to buffer” value is reported as “greater susceptibility” in experiment [1] (seven isolates IDRL-2394, IDRL-2526, IDRL-2554, IDRL-2588, IDRL-2622, IDRL-2640, IDRL-5258, 40 mM, 2 hours); “substantial detachment” in experiment [2]; “essentially completely released” in experiment [3].
With chymotrypsin, the “biofilm detachment compared to buffer” value in experiment [1] (setting [5]) is listed as “detach S. lugdunensis biofilms selectively”.
Consider `CCO` [ethanol], for which, in experiment [4] (2% ethanol, all S. lugdunensis that formed measurable baseline biofilms), the adherence entry is listed as “prevent the adherence”. Besides, the “killing / growth of isolates” value in experiment [4] (2% ethanol, isolates IDRL-2554, IDRL-2640 and IDRL-5254 only) was “killed; also recorded: inhibited growth”. In addition, the killing of bacteria entry in experiment [4] (4% ethanol, all S. lugdunensis isolates) is reported as “bactericidal”. For the same compound, the “levels of biofilm production” value in experiment [4] (most ethanol concentrations, isolates with baseline biofilm OD492 >=0.150) is reported as “reduced the levels of biofilm production”. Further, the biofilm production entry in the experiment on S. aureus SA113 (setting [6]) and in the experiment on S. epidermidis RP62A (setting [6]) was “significant reductions in biofilm production” each time.
Regarding trypsin, the “biofilm detachment compared to buffer” value in experiment [1] (setting [5]), in experiment [2] and in experiment [3] was “Concordant results” each time. Also, in experiment [1] (isolates IDRL-2414 and IDRL-2526, 10 U/mL, 2 hours at 37° C.), the biofilm release result is listed as “noticeably more resistant to release”.
For the compound `[Cl-].[Na+]` [sodium chloride], in experiment [4] (5% sodium chloride), the biofilm formation result is “Essentially no measurable quantity of biofilm could be detected”. Besides, the “S. lugdunensis isolates that formed more biofilm” value in experiment [4] (TSBgluc1% containing 1 or 2% sodium chloride, 11/15 isolates) worked out at 73%. In addition, the “adherence to microtiter wells” value in experiment [4] (higher concentrations of salt (above 2% sodium chloride)) is recorded as “substantially reduced”. For the same compound, the “growth (optical density of the biomass in each well)” value (in experiment [4] (setting [7]); in the experiment on S. aureus SA113 (setting [7]); in the experiment with S. epidermidis RP62A (setting [7])) was “not affected” throughout. For the same compound, the “biofilm compared to baseline biofilm formation” value in the experiment with S. aureus SA113 (5% sodium chloride) is recorded as “significantly reduced, yet still discernable”; with S. epidermidis RP62A (5% sodium chloride), “not affected”. Further, the biofilm levels entry with S. aureus SA113 (TSBgluc1% with 1-2% sodium chloride) and in the experiment on S. epidermidis RP62A (TSBgluc1% with 1-3% sodium chloride) was “increase” in each case.
